These results are taken from EP0808172B1, “COMBINATION OF ANGIOTENSIN CONVERTING ENZYME INHIBITOR AND ALDOSTERONE ANTAGONIST FOR THE TREATMENT OF VENTRICULAR HYPERTROPHY” (priority 1995, dated 1996).

Series [1] concerns patients with symptomatic heart failure. In words: Human clinical trial: weight and vital signs. The conditions noted are these: 75 mg dose group, Day 9 and Week 4 visits. Type of series: in vivo, humans. The method, then: (§1) Concurrent medication within the past 30 days. • 2. 12-lead ECG • 3. […] Signs and symptoms within the past 30 days.
Patients were evaluated 9 days after beginning study medication.
(§2) All statistical methods were two-sided.

The test system is the same in series [2]. In words: Human clinical trial: cardiac assessments (sodium retention score, NYHA class) and changes in patient therapy. Type of series: in vivo, humans. The conditions noted are these: spironolactone groups vs placebo; difference not statistically significant.
From the text: as §1, §2

The test system of series [3] is patients afflicted with congestive heart failure. The settings on record: spironolactone 100 mg/day coadministered with an ACE inhibitor; van Vliet et al 1993; cited from earlier work.
Series [4] deals with patients with symptomatic heart failure. Kind of series: Human clinical trial: hospitalizations and deaths.
Series [5] shares this test system. In words: Human clinical trial: neurohormones (urinary aldosterone, plasma renin activity, N-terminal ANF). The conditions noted are these: 12 week visit, dose response (p = 0.002).

Molecules are shown by their SMILES.

Consider `CC(=O)S[C@@H]1CC2=CC(=O)CC[C@]2(C)[C@H]2CC[C@@]3(C)[C@@H](CC[C@@]34CCC(=O)O4)[C@H]12` [Spironolactone, 17-hydroxy-7α-mercapto-3-oxo-17α-pregn-4-ene-21-carboxylic acid γ-lactone acetate], for which, in series [1], the “changes from baseline in body weight” value is “more weight loss than other patients”. Moreover, the “NYHA Class” value in series [2] is given as “trend toward improvement”. Besides, the “patients in whom the treatment was highly effective” value in series [3] was 13 of 16. Moreover, the “patients died within 30 days after the study was completed” value in series [4] (previously at the 50 mg dose) is “Three”. Further, the “Hospitalizations, percent of patients” value amounted to 7.3% in series [4] (spironolactone 12.5 mg), 6.6% in series [4] (spironolactone 25 mg), 27.6% in series [4] (spironolactone 50 mg) and 14.6% in series [4] (spironolactone 75 mg). The “Urinary aldosterone excretion, change from baseline” value in series [5] is reported as “Greater increases were seen at higher doses of spironolactone”.
